Laboratory results taken from PMC11012124, “Synthesis of Novel Triazine-Based Chalcones and 8,9-dihydro-7H-pyrimido[4,5-b][1,4]diazepines as Potential Leads in the Search of Anticancer, Antibacterial and Antifungal Agents” (International Journal of Molecular Sciences, 2024).

Legend:
A549/ATCC = test: cells; conditions: Homo sapiens, A549, 48 h; for CC50: read-out: LC50
SK-OV-3 = test: cells; conditions: Homo sapiens, SK-OV-3, 48 h; for CC50: read-out: LC50
60 cancer cell lines = test: NCI-60 one-dose screen (10 μM); assay type: cell-based; conditions: Homo sapiens; one dose of 10 μM, mean over 60 cancer cell lines; read-out: Mean Growth Percent (MGP)
Text: Additionally, the mean of the growth percentages (MGP) of each compound against all the 60 cancer cell lines is also reported, which is used as one of the selection criteria to continue with tests at five concentration doses.

SF-539 = test: cells; conditions: Homo sapiens, SF-539, 48 h; for CC50: read-out: LC50, SF-539, 48 h
SN12C = test: cells; conditions: Homo sapiens, 48 h; for CC50: read-out: LC50
KM12 = test: cells; conditions: Homo sapiens, KM12, 48 h; for CC50: read-out: LC50
T-47D = test: cells; conditions: Homo sapiens, T47D, 48 h; for CC50: read-out: LC50
HCT-116 = test: cells; conditions: Homo sapiens, HCT-116, 48 h; for CC50: read-out: LC50
DU-145 = test: cells; conditions: Homo sapiens, DU-145, 48 h; for CC50: read-out: LC50
SK-MEL-2 = test: cells; conditions: Homo sapiens, SK-MEL-2, 48 h; for CC50: read-out: LC50
NCI-H23 = test: cells; conditions: Homo sapiens, NCI-H23, 48 h; for CC50: read-out: LC50
MDA-MB-468 = test: cells; conditions: Homo sapiens, MDA-MB-468, 48 h; for CC50: read-out: LC50
M14 = test: cells; conditions: Homo sapiens, M14, 48 h; for CC50: read-out: LC50
UO-31 = test: cells; conditions: Homo sapiens, UO-31, 48 h; for CC50: read-out: LC50
HL-60(TB) = test: cells; conditions: Homo sapiens, HL-60, 48 h; for CC50: read-out: LC50
UACC-257 = test: cells; conditions: Homo sapiens, UACC-257, 48 h; for CC50: read-out: LC50
COLO 205 = test: cells; conditions: Homo sapiens, COLO 205, 48 h; for CC50: read-out: LC50
HOP-92 = test: cells; conditions: Homo sapiens, HOP-92, 48 h; for CC50: read-out: LC50
HCT-15 = test: cells; conditions: Homo sapiens, HCT-15, 48 h; for CC50: read-out: LC50
NCI-H226 = test: cells; conditions: Homo sapiens, NCI-H226, 48 h; for CC50: read-out: LC50
LOX IMVI = test: cells; conditions: Homo sapiens, 48 h; for CC50: read-out: LC50, LOX IMVI, 48 h
A498 = test: cells; conditions: Homo sapiens, A498, 48 h; for CC50: read-out: LC50
MDA-MB-231/ATCC = test: cells; conditions: Homo sapiens, MDA-MB-231, 48 h; for CC50: read-out: LC50
SF-295 = test: cells; conditions: Homo sapiens, SF-295, 48 h; for CC50: read-out: LC50
SK-MEL-5 = test: cells; conditions: Homo sapiens, SK-MEL-5, 48 h; for CC50: read-out: LC50
TK-10 = test: cells; conditions: Homo sapiens, TK-10, 48 h; for CC50: read-out: LC50
U251 = test: cells; conditions: Homo sapiens, U-251, 48 h; for GI50: U251, 48 h; for CC50: read-out: LC50
NCI-H522 = test: cells; conditions: Homo sapiens, NCI-H522, 48 h; for CC50: read-out: LC50
NCI-H460 = test: cells; conditions: Homo sapiens, NCI-H460, 48 h; for CC50: read-out: LC50
786-0 = test: cells; conditions: Homo sapiens, 786-0, 48 h; for CC50: read-out: LC50
OVCAR-4 = test: cells; conditions: Homo sapiens, OVCAR-4, 48 h; for CC50: read-out: LC50
MOLT-4 = test: cells; conditions: Homo sapiens, MOLT-4, 48 h; for CC50: read-out: LC50
OVCAR-5 = test: cells; conditions: Homo sapiens, OVCAR-5, 48 h; for CC50: read-out: LC50
HT29 = test: cells; conditions: Homo sapiens, HT-29, 48 h; for CC50: read-out: LC50
RPMI-8226 = test: cells; conditions: Homo sapiens, RPMI-8226, 48 h; for CC50: read-out: LC50
MCF7 = test: cells; conditions: Homo sapiens, MCF7, 48 h; for CC50: read-out: LC50

## CN(C)c1nc(NCCNS(=O)(=O)c2ccc(C3=Nc4c(N)nc(N)nc4NC(c4ccc(C(F)(F)F)cc4)C3)cc2)nc(N2CCOCC2)n1 (stereo not shown) [30g]
A549/ATCC
  GI50: 51.3 µM
  CC50: > 100 µM
SK-OV-3
  GI50: 69.7 µM
  CC50: > 100 µM
60 cancer cell lines
  activity at 10 µM: 38.8%
SF-539
  GI50: 22.5 µM
  CC50: > 100 µM
SN12C
  GI50: 35.7 µM
  CC50: > 100 µM
KM12
  GI50: 37 µM
  CC50: > 100 µM
T-47D
  GI50: 21.3 µM
  CC50: > 100 µM
HCT-116
  GI50: 41.9 µM
  CC50: > 100 µM
DU-145
  GI50: 72 µM
  CC50: > 100 µM
SK-MEL-2
  GI50: 15.8 µM
  CC50: 57.8 µM
NCI-H23
  GI50: 37.6 µM
  CC50: > 100 µM
MDA-MB-468
  GI50: 13.7 µM
  CC50: 69.5 µM
M14
  GI50: 22 µM
  CC50: > 100 µM
UO-31
  GI50: 100 µM
  CC50: > 100 µM
HL-60(TB)
  GI50: 27.5 µM
  CC50: > 100 µM
UACC-257
  GI50: 20.4 µM
  CC50: > 100 µM
COLO 205
  GI50: 16.5 µM
  CC50: 76.2 µM
HOP-92
  GI50: 7.48 µM
  CC50: > 100 µM
HCT-15
  GI50: 30.9 µM
  CC50: > 100 µM
NCI-H226
  GI50: 17.6 µM
  CC50: > 100 µM
LOX IMVI
  GI50: 17.1 µM
  CC50: 64.1 µM
A498
  GI50: 24.1 µM
  CC50: > 100 µM
MDA-MB-231/ATCC
  GI50: 16.9 µM
  CC50: > 100 µM
SF-295
  GI50: 21.1 µM
  CC50: > 100 µM
SK-MEL-5
  GI50: 15.9 µM
  CC50: 57.1 µM
TK-10
  GI50: 54.3 µM
  CC50: > 100 µM
U251
  GI50: 24.2 µM
  CC50: > 100 µM
NCI-H522
  GI50: 51.7 µM
  CC50: > 100 µM
NCI-H460
  GI50: 36.5 µM
  CC50: > 100 µM
786-0
  GI50: 20.8 µM
  CC50: > 100 µM
OVCAR-4
  GI50: 37 µM
  CC50: > 100 µM
MOLT-4
  GI50: 17.3 µM
  CC50: > 100 µM
OVCAR-5
  GI50: 27 µM
  CC50: > 100 µM
HT29
  GI50: 19.8 µM
  CC50: > 100 µM
RPMI-8226
  GI50: 11.2 µM
  CC50: > 100 µM
MCF7
  GI50: 18.1 µM
  CC50: > 100 µM

## CN(C)c1nc(NCCNS(=O)(=O)c2ccc(C(=O)/C=C/c3ccc(C(F)(F)F)cc3)cc2)nc(N2CCOCC2)n1 [23g]
A549/ATCC
  GI50: 13.8 µM
  CC50: 62.3 µM
SK-OV-3
  GI50: 14.7 µM
  CC50: 59 µM
60 cancer cell lines
  activity at 10 µM: -14.8%
SF-539
  GI50: 13 µM
  CC50: 50.7 µM
SN12C
  GI50: 12.5 µM
  CC50: 50 µM
KM12
  GI50: 8.95 µM
  CC50: 68.3 µM
T-47D
  GI50: 5.5 µM
  CC50: > 100 µM
HCT-116
  GI50: 3.19 µM
  CC50: 33.5 µM
DU-145
  GI50: 15.4 µM
  CC50: 54.5 µM
SK-MEL-2
  GI50: 16.3 µM
  CC50: 56.7 µM
NCI-H23
  GI50: 13 µM
  CC50: 52.6 µM
MDA-MB-468
  GI50: 5.11 µM
  CC50: 48.8 µM
M14
  GI50: 9.83 µM
  CC50: 49.5 µM
UO-31
  GI50: 11.9 µM
  CC50: 49.2 µM
HL-60(TB)
  GI50: 5.12 µM
  CC50: > 100 µM
UACC-257
  GI50: 15.3 µM
  CC50: 56.5 µM
COLO 205
  GI50: 15 µM
  CC50: 69.8 µM
HOP-92
  GI50: 15.2 µM
  CC50: 65.2 µM
HCT-15
  GI50: 1.86 µM
  CC50: 7.07 µM
NCI-H226
  GI50: 16.1 µM
  CC50: 78.9 µM
LOX IMVI
  GI50: 1.68 µM
  CC50: 5.94 µM
A498
  GI50: 13.3 µM
  CC50: 53 µM
MDA-MB-231/ATCC
  GI50: 11.7 µM
  CC50: 50.3 µM
SF-295
  GI50: 8.11 µM
  CC50: 45.4 µM
SK-MEL-5
  GI50: 15.8 µM
  CC50: 54.9 µM
TK-10
  GI50: 15.5 µM
  CC50: 56 µM
U251
  GI50: 2.95 µM
  CC50: 40.7 µM
NCI-H522
  GI50: 15.2 µM
  CC50: 58.2 µM
NCI-H460
  GI50: 16.1 µM
  CC50: 65.6 µM
786-0
  GI50: 14.5 µM
  CC50: 54.9 µM
OVCAR-4
  GI50: 14.8 µM
  CC50: 56.5 µM
MOLT-4
  GI50: 3.48 µM
  CC50: > 100 µM
OVCAR-5
  GI50: 14.5 µM
  CC50: 53 µM
HT29
  GI50: 2.06 µM
  CC50: 9.88 µM
RPMI-8226
  GI50: 1.77 µM
  CC50: > 100 µM
MCF7
  GI50: 1.68 µM
  CC50: 6.63 µM
